The values below come from US20190152962A1, “CYCLOPROPYL DERIVATIVES AS ROR-GAMMA MODULATORS” (CADILA HEALTHCARE LIMITED, priority 2016, published 2019).

Each structure is given as a SMILES string.

Assay [1] has as its system secreted IL-17 in peripheral blood mononuclear cells (PBMCs). As to the kind of experiment: Human IL-17 inhibition assay. To be noted: PBMC, anti-CD3/anti-CD28, 72 h, read-out: IL17 IC50. In kind it is cell-based. The method, then: Peripheral blood mononuclear cells (PBMCs) were isolated from healthy volunteers and subjected to T cell polarization assay. Two million PBMCs were placed on anti-CD3 (Biolegend, US) coated 96-well plates and 1 μg/mL of anti-CD28 (Biolegend, US) was added along with RORγt inhibitors or the vehicle control and incubated at 37° C. and 5% CO2 for 72 h. At the end of incubation time, the supernatant was collected and analyzed for secreted IL-17 using sandwich enzyme immunoassay (Mabtech AB, Sweden). The results were analyzed using Graphpad Prism and the half-maximal inhibitory concentrations (IC50) of the test compounds were derived (Table 4).

The target in the next assay is T1, full length human RORγt (Homo sapiens, UniProt P51449).
T1 construct: full length human RORγt together in COS-7 cells; expressed in transfected cells; host or cells: COS-7
T1 sequence (P51449 1-497 isoform P51449-2): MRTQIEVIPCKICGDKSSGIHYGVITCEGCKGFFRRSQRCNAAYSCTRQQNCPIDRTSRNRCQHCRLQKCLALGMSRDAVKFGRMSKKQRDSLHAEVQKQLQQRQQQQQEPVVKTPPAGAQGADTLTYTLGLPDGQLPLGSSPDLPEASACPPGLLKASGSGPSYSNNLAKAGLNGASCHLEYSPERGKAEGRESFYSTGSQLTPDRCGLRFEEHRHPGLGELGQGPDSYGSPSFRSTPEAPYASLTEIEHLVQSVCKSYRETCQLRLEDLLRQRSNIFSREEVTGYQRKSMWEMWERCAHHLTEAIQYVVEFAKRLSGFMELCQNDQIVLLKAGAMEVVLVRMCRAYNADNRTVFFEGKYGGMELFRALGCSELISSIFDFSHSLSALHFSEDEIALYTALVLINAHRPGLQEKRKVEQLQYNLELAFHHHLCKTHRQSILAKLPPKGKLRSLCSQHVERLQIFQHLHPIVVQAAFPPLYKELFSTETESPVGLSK
Kind of assay: 5×RORE based luciferase assay. Type of assay: cell-based. Conditions: COS-7 cells transfected with 5×RORE-Luc and hRORγt, 18-20 h treatment. On the procedure:
Human RORγt (hRORγt) inhibitors were screened in RORE (RORγt Response Element) based Luciferase assay by transient transfection of 5×RORE (5 tandem repeats of RORγt Response Element) and full length human RORγt together in COS-7 cells. COS-7 cells were maintained as monolayer in complete DMEM (High Glucose) medium in presence of 2 mM Glutamin and 1× Sodium Pyruvate. Day before transfection, 15000 cells were seeded in 96 well cell culture plate in 100 μl antibiotic free medium and incubated at 37° C. in 5% CO2 containing humidified chamber O/N. Prior to transfection, cells were fed with fresh complete growth medium and incubated until the addition of transfection complex. Transfection complex for the required numbers of wells were prepared from pGL2-promoter-5×RORE-Luc plasmid, pcDNA3.1 (+)-hRORγt expression plasmid, pβ-GAL plasmid (transfection control), and Lipofectamine 3000 (Invitrogen). 50 μl of transfection complex were added in 100 μl of complete medium to respective wells, mixed gently and plate was incubated for 5-6 h at 37° C. in 5% CO2 containing humidified chamber. After 5 h of transfection, content of the wells were aspirated and cells were treated with increasing concentration of RORγt inverse agonist in medium devoid of serum with a final DMSO concentration of 0.2% for 18-20 h at 37° C. in 5% CO2 containing humidified chamber. Next day, cells were lysed and the lysates were assayed for luciferase and β-GAL activity using Promega's luciferase assay system and an in-house made β-GAL assay buffer respectively. Luciferase signals were normalized with β-GAL and % activity was determined with respect to that of 10 nM control ligand.
IC50 of selected compounds were then determined by nonlinear regression analysis of % activity, plotted against compound concentration (Table 4).

With `CCS(=O)(=O)c1ccc(CC(=O)Nc2cc(Cl)c(C3(c4noc(-c5ccc(F)c(F)c5)n4)CC3)c(Cl)c2)nc1` [Example 44, N-(3,5-dichloro-4-(1-(5-(3,4-difluorophenyl)-1,2,4-oxadiazol-3-yl)cyclopropyl)phenyl)-2-(5-(ethylsulfonyl)pyridin-2-yl)acetamide], the figures for the IC50 (in assay [1]; on full length human RORγt) were 43 nM and 10.3 nM, respectively.

In the case of `O=C(Cc1ccc(S(=O)(=O)NC2CC2)cc1)Nc1cc(Cl)c(C2(c3nc4ccc(F)cc4o3)CC2)c(Cl)c1` [Example 65, 2-(4-(N-cyclopropylsulfamoyl)phenyl)-N-(3,5-dichloro-4-(1-(6-fluorobenzo[d]oxazol-2-yl)cyclopropyl)phenyl)acetamide], the IC50 in assay [1] came to 6 nM; against full length human RORγt, 2.4 nM.

Take `CCS(=O)(=O)c1ccc(CC(=O)Nc2cc(Cl)c(C3(c4noc(-c5ccc(F)c(Cl)c5)n4)CC3)c(Cl)c2)cc1` [Example 10, N-(3,5-dichloro-4-(1-(5-(3-chloro-4-fluorophenyl)-1,2,4-oxadiazol-3-yl)cyclopropyl)phenyl)-2-(4-(ethylsulfonyl)phenyl)acetamide]: the IC50 stood at 9.4 nM in assay [1] and 6.8 nM on full length human RORγt.

For the compound `CCS(=O)(=O)c1ccc(CC(=O)Nc2cc(Cl)c(C3(c4noc(-c5ccc(C#N)cc5)n4)CC3)c(Cl)c2)nc1` [Example 53, N-(3,5-dichloro-4-(1-(5-(4-cyanophenyl)-1,2,4-oxadiazol-3-yl)cyclopropyl)phenyl)-2-(5-(ethylsulfonyl)pyridin-2-yl)acetamide], the IC50 came out at 48 nM in assay [1] and 1.9 nM against full length human RORγt.

For `O=C(Cc1ccc(S(=O)(=O)NC2CC2)cc1)Nc1cc(Cl)c(C2(c3noc(-c4ccc(F)cc4)n3)CC2)c(Cl)c1` [Example 63, 2-(4-(N-cyclopropylsulfamoyl)phenyl)-N-(3,5-dichloro-4-(1-(5-(4-fluorophenyl)-1,2,4-oxadiazol-3-yl)cyclopropyl)phenyl)acetamide], the IC50 came to 18 nM in assay [1] and 11 nM against full length human RORγt.

With `CCS(=O)(=O)c1ccc(CC(=O)Nc2cc(Cl)c(C3(c4nc5ccc(F)cc5o4)CC3)c(Cl)c2)cc1` [Example 36, N-(3,5-dichloro-4-(1-(6-fluorobenzo[d]oxazol-2-yl)cyclopropyl)phenyl)-2-(4-(ethylsulfonyl)phenyl)acetamide], the IC50 is 19 nM in assay [1] and 2.44 nM against full length human RORγt.

As for `CCS(=O)(=O)c1ccc(CC(=O)Nc2cc(Cl)c(C3(c4noc(-c5cccnc5)n4)CC3)c(Cl)c2)cc1` [Example 19, N-(3,5-dichloro-4-(1-(5-(pyridin-3-yl)-1,2,4-oxadiazol-3-yl)cyclopropyl)phenyl)-2-(4-(ethylsulfonyl)phenyl)acetamide], the IC50 was found to be 27 nM in assay [1] and 1.58 nM on full length human RORγt.

Regarding `CCS(=O)(=O)c1ccc(CC(=O)Nc2cc(Cl)c(C3(c4noc(-c5ccc(F)c(F)c5)n4)CC3)c(Cl)c2)cc1` [Example 5, N-(3,5-dichloro-4-(1-(5-(3,4-difluorophenyl)-1,2,4-oxadiazol-3-yl)cyclopropyl)phenyl)-2-(4-(ethylsulfonyl)phenyl)acetamide], the IC50 was 17 nM in assay [1] and 5.6 nM against full length human RORγt.

As to `CCS(=O)(=O)c1ccc(CC(=O)Nc2cc(Cl)c(C3(c4noc(-c5ccc(Cl)c(Cl)c5)n4)CC3)c(Cl)c2)cn1` [Example 71, N-(3,5-dichloro-4-(1-(5-(3,4-dichlorophenyl)-1,2,4-oxadiazol-3-yl)cyclopropyl)phenyl)-2-(6-(ethylsulfonyl)pyridin-3-yl)acetamide], the values for the IC50 (in assay [1]; on full length human RORγt) were 32 nM and 15.7 nM, respectively.

Take `CCS(=O)(=O)c1ccc(CC(=O)Nc2cc(Cl)c(C3(c4noc(-c5ccc(C(F)(F)F)cc5)n4)CC3)c(Cl)c2)cc1` [Example 3, N-(3,5-dichloro-4-(1-(5-(4-(trifluoromethyl)phenyl)-1,2,4-oxadiazol-3-yl)cyclopropyl)phenyl)-2-(4-(ethylsulfonyl)phenyl)acetamide]: the IC50 was determined as 38.3 nM in assay [1] and 8.5 nM against full length human RORγt.

`CCS(=O)(=O)c1ccc(CC(=O)Nc2cc(Cl)c(C3(c4nnc(-c5ccc(F)cc5)o4)CC3)c(Cl)c2)cc1` [Example 79, N-(3,5-dichloro-4-(1-(5-(4-fluorophenyl)-1,3,4-oxadiazol-2-yl)cyclopropyl)phenyl)-2-(4-(ethylsulfonyl)phenyl)acetamide]: the figures for the IC50 (in assay [1]; against full length human RORγt) were 39 nM and 12.3 nM, respectively.

Turning to `CCS(=O)(=O)c1ccc(CC(=O)Nc2cc(Cl)c(C3(c4noc(-c5cccc(Cl)c5)n4)CC3)c(Cl)c2)nc1` [Example 51, N-(3,5-dichloro-4-(1-(5-(3-chlorophenyl)-1,2,4-oxadiazol-3-yl)cyclopropyl)phenyl)-2-(5-(ethylsulfonyl)pyridin-2-yl)acetamide], the half-maximal inhibitory concentration (IC50) in assay [1] is 16 nM; against full length human RORγt, 12.1 nM.

`CCS(=O)(=O)c1ccc(CC(=O)Nc2cc(Cl)c(C3(c4noc(C5CC(F)(F)C5)n4)CC3)c(Cl)c2)cc1` [Example 26, N-(3,5-dichloro-4-(1-(5-(3,3-difluorocyclobutyl)-1,2,4-oxadiazol-3-yl)cyclopropyl)phenyl)-2-(4-(ethylsulfonyl)phenyl)acetamide]: the IC50 in assay [1] came out at 7.3 nM; at full length human RORγt it was 2.5 nM.

Take `CCS(=O)(=O)c1ccc(CC(=O)Nc2cc(Cl)c(C3(c4nc5ccc(F)cc5o4)CC3)c(Cl)c2)nc1` [Example 58, N-(3,5-dichloro-4-(1-(6-fluorobenzo[d]oxazol-2-yl)cyclopropyl)phenyl)-2-(5-(ethylsulfonyl)pyridin-2-yl)acetamide]: the IC50 in assay [1] was determined as 23.3 nM; on full length human RORγt it was 3.4 nM.

`CCS(=O)(=O)c1ccc(CC(=O)Nc2cc(Cl)c(C3(c4noc(-c5ccc(F)c(F)c5)n4)CC3)c(Cl)c2)cn1` [Example 68, N-(3,5-dichloro-4-(1-(5-(3,4-difluorophenyl)-1,2,4-oxadiazol-3-yl)cyclopropyl)phenyl)-2-(6-(ethylsulfonyl)pyridin-3-yl)acetamide]: the IC50 is 42.7 nM in assay [1] and 9.6 nM at full length human RORγt.

Take `CCS(=O)(=O)c1ccc(CC(=O)Nc2cc(F)c(C3(c4noc(-c5ccc(F)cc5)n4)CC3)c(Cl)c2)cc1` [Example 29, N-(3-chloro-5-fluoro-4-(1-(5-(4-fluorophenyl)-1,2,4-oxadiazol-3-yl)cyclopropyl)phenyl)-2-(4-(ethylsulfonyl)phenyl)acetamide]: the IC50 in assay [1] was 19 nM; on full length human RORγt it was 19.4 nM.

For the compound `CCS(=O)(=O)c1ccc(CC(=O)Nc2cc(Cl)c(C3(c4noc(-c5ccc(F)cc5Cl)n4)CC3)c(Cl)c2)cc1` [Example 9, N-(3,5-dichloro-4-(1-(5-(2-chloro-4-fluorophenyl)-1,2,4-oxadiazol-3-yl)cyclopropyl)phenyl)-2-(4-(ethylsulfonyl)phenyl)acetamide], the IC50 was determined as 9.2 nM in assay [1] and 8.9 nM against full length human RORγt.

Turning to `O=C(Cc1ccc(S(=O)(=O)NC2CC2)cc1)Nc1cc(Cl)c(C2(c3noc(-c4ccc(C(F)(F)F)cc4)n3)CC2)c(Cl)c1` [Example 64, 2-(4-(N-cyclopropylsulfamoyl)phenyl)-N-(3,5-dichloro-4-(1-(5-(4-(trifluoromethyl)phenyl)-1,2,4-oxadiazol-3-yl)cyclopropyl)phenyl)acetamide], the figures for the IC50 (in assay [1]; against full length human RORγt) were 63 nM and 15.9 nM, respectively.
